Results taken from US20220402980A1, “CHROMOGRANIN A-DERIVED PEPTIDES AND USES THEREOF” (OSPEDALE SAN RAFFAELE S.R.L., priority 2019, published 2022).
Read-outs that look alike come from different tables or passages of the source. Where a SMILES comes first, the peptide text is derived from it. Bridges are numbered along the chain shown (N, C = ends). Triazole bridges read from a SMILES are 1,4-linked. [ ]: non-standard residue; d: D form. Lys(N3) = [N-]=[N+]=NCCCC[C@H](N)C(=O)O; Pra = C#CC[C@H](N)C(=O)O

Assays:
in vivo = settings: mouse, iv, 3 MBq/animal, total radioactivity
αvβ8 = αvβ8 (Homo sapiens, UniProt P06756+P26012); assay: Competitive integrin binding assay (isoDGR/STV-HRP probe), αvβ8-coated plates
Protocol: (§1) Peptide binding was measured by a competitive binding assay using as integrin probe a complex made by a N-terminal acetylated isoDGR peptide biotinylated at the E-amino group of the lysine, acetyl-Ciso[…]-bio (SEQ ID No. 29), and a streptavidin-peroxidase conjugate (called isoDGR/STV-HRP)[43].
(§2) Each mixture was then added to integrin-coated wells and left to incubate for 2 h at room temperature. After washing with 25 mM Tris-HCl, pH 7.4, containing 150 mM sodium chloride, 1 mM magnesium chloride, 1 mM manganese chloride, each well was filled with a chromogenic solution (o-phenylenediamine dihydrochloride) and left to incubate for 30 min at room temperature. The chromogenic reaction was stopped by adding 1 N sulfuric acid. The absorbance at 490 nm was then measured using a microtiterplate reader. Ki values were calculated by non-linear regression analysis of competitive binding data using the “One site - Fit Ki” equation of the GraphPad Prism Software using the Kd values of the probe indicated above.

αvβ6 = target: T1, αvβ6 (Homo sapiens, UniProt P06756+P18564); assay: Competitive integrin binding assay (isoDGR/STV-HRP probe), αvβ6-coated plates
T1 construct: recombinant human αvβ6 extracellular domain (R&D Systems); purchased R&D Systems (Minneapolis, Minn.)
Protocol: as §1, §2

BxPC-3 cells = assay: Binding of peptide-IRDye conjugates to cultured BxPC-3 cells; assay type: cell-based, human; settings: BxPC-3 cells; 5a-IRDye 4 nM
Protocol: (§3) B) Binding of the indicated peptide-IRDye conjugates to the various cell lines. Various amounts of conjugates were added to cell monolayers (grown in 96-well microtiter plates) and incubated for 1 h at 37° C., 5% CO2 (see Experimental section). After washing, bound fluorescence was measured using an Odyssey CLx (LI-COR) scanner. A representative image of the scanned plate and binding quantification are reported. Mean ±SE of quadruplicate wells.
(§4) Various amounts of unlabeled peptides were mixed 5a-IRDye (4 nM) and added to the cells. After 1 h, the plates were washed, and the bound fluorescence was quantified as described above (left panels).
(§5) The binding of peptide-IRDye conjugates to BxPC-3, 5637, HUVECs, 4T1, K8484 and DT6606 cells was analyzed as follows. The cells were grown in 96-well clear-bottom black microtiterplates (Corning® cat. 3603, 2-3x10^4 cells/well, plated 48 h before the experiment). After washing twice with 0.9% sodium chloride solution, the cells were incubated with 25 mM Hepes buffer, pH 7.4, containing 150 mM sodium chloride, 1 mM magnesium chloride, 1 mM manganese chloride and 1% BSA (binding buffer) for 5 min. Peptide-IRDye conjugates (0.013-40 nM in binding buffer) were then added to the cells and left to incubate for 1 h at 37° C., 5% CO2. After three washings with binding buffer (5 min each, 200 al/well), the cells were fixed with PBS containing 2% paraformaldehyde and 3% sucrose for 15 min at room temperature. Binding of conjugates to cells was quantified by scanning the plate (filled with PBS, 100 al/well) with the Odyssey CLx (LI-COR) using the following settings: scan intensity, 8.5; scan focus offset 4; scan quality, highest; channel, 800; resolution, 169 pm. Then, the plates were incubated with 5 μg/ml of 4′,6-diamidino-2-phenylindole (DAPI) for 15 min, washed twice with PBS and read with a VICTOR3 plate reader (Perkin Elmer, Waltham, Mass., USA) to quantify the cell number in each well, using the following filters: excitation, 355±40 nm; emission, 460±25 nm (acquisition,1 s).

5637 cells = assay: Binding of peptide-IRDye conjugates to cultured 5637 cells; assay type: cell-based, human; settings: 5637 cells; 5a-IRDye 4 nM
Protocol: as §3, §4, §5

[1] = system: human bladder carcinoma 5637 cells; assay: 5637 cell viability (PrestoBlue); assay type: cell-based; settings: 48 h
Protocol: FIG. 12. Effect of peptides 4 and 5 on human bladder carcinoma 5637 cell viability. 5637 cells were seeded in a 96-well microtiterplate (20,000 cell/well) and cultured for 16 h at 37° C., 5% CO2. The day after the indicated doses of peptide 4 and 5 were added to the cells and left to incubate for additionally 48 h at 37° C., 5% CO2. Cell viability was assessed using the PrestoBlue* cell viability reagent (ThermoFisher) according to the manufacturer's instructions. Viability of the treated cells was normalized to that of untreated cells and is reported as a percentage (mean±SE of triplicate wells).

[2] = Peptide stability in mouse liver microsomal preparations (RP-HPLC); assay type: in vitro ADME; settings: C57BL/6, mouse, liver microsomes; 37° C.; read-out: t1/2 in mouse liver microsomes (converted)
Protocol: FIG. 14. Stability of peptides 4 and 5 in murine liver microsomes as determined by RP-HPLC. a) RP-HPLC of 4 and 5 after incubation at 37° C. in murine liver microsomes. Peak 1 corresponds to 4 and 5. The peptides were added to murine liver microsomes (454 - μg/ml, final concentration) and incubated for the indicated time, diluted with an equal volume of 90% acetonitrile containing 0.1% TFA and analyzed onto a LiChrospher C18 column (16 ag). No peptide indicates liver microsome aliquot without the peptide. b) Quantification of Peak 1 area (left panel) and height (right panel) of the indicated peptides. The corresponding half-life is also shown.
The stability of compound 4 and 5 in mouse liver microsomal preparations was assessed by HPLC analysis. To this aim microsomes were prepared as follows: 11 g of mouse liver tissue (C57BL/6 mice) was homogenized in cold PBS supplemented with 0.25 M sucrose (3 ml/g of tissue) using a Potter-Elvehjem homogenizer (10 strokes), followed by additional homogenization using a rotor-stator homogenizer (40 sec). The homogenate was filtered through 70 pm cell-strainers, centrifuged three times to remove insoluble materials (500 x g, 5 min; 3000 x g, 30 min; 110000 x g, 90 min, 4° C.). […] Protein concentration was measured by measuring the absorbance at 280 nm with a NanoDrop spectrophotometer (Thermo Scientific). […]

## CC[C@H](C)[C@H](NC(=O)[C@H](CCCNC(=N)N)NC(=O)[C@H](CC(C)C)NC(=O)[C@H](CC(=O)O)NC(=O)CNC(=O)[C@H](CCCNC(=N)N)NC(=O)[C@H](CC(C)C)NC(=O)[C@@H](NC(=O)[C@H](CCC(=O)O)NC(=O)[C@H](Cc1ccccc1)NC(=O)[C@@H](N)CSC1CC(=O)N(CCNC(=O)CN2CCN(CC(=O)O)CCN(CC(=O)O)CC2)C1=O)[C@@H](C)O)C(=O)N[C@@H](CC(C)C)C(=O)N[C@@H](CO)C(=O)N[C@H](C(=O)N[C@@H](CC(C)C)C(=O)N[C@@H](CCCNC(=N)N)C(=O)N[C@H]1Cc2cn(nn2)CCCC[C@@H](C(=O)N[C@@H](CCCCN)C(=O)N[C@@H](CCC(=O)O)C(=O)N[C@@H](CC(C)C)C(=O)N[C@@H](CCC(N)=O)C(=O)N[C@@H](CC(=O)O)C(N)=O)NC(=O)[C@H](CC(C)C)NC(=O)[C@H](CC(N)=O)NC(=O)[C@H](CCC(N)=O)NC1=O)[C@@H](C)CC (some centres unmarked) [1^8F-NOTA-5a]
In vivo; accumulation in intestine, femur, liver and stomach
  tissue uptake at 2 h: ~2 %ID/g
In vivo; accumulation in the lungs
  tissue uptake at 2 h: 1.2 %ID/g
In vivo; radiotracer levels in the kidneys
  tissue uptake at 2 h: ~80 %ID/g
In vivo; uptake in brain, heart, spleen, blood, muscle
  tissue uptake at 2 h: < 0.5 %ID/g

## CC[C@H](C)[C@H](NC(=O)[C@H](CCCNC(=N)N)NC(=O)[C@H](CCC(=O)O)NC(=O)[C@H](CCC(=O)O)NC(=O)CNC(=O)[C@H](CCCNC(=N)N)NC(=O)[C@H](CC(C)C)NC(=O)[C@@H](NC(=O)[C@H](CCC(=O)O)NC(=O)[C@H](Cc1ccccc1)NC(=O)[C@@H](N)CS)[C@@H](C)O)C(=O)N[C@@H](CC(C)C)C(=O)N[C@@H](CO)C(=O)N[C@H](C(=O)N[C@@H](CC(C)C)C(=O)N[C@@H](CCCNC(=N)N)C(=O)N[C@@H](Cc1c[nH]cn1)C(=O)N[C@@H](CCC(N)=O)C(=O)N[C@@H](CC(N)=O)C(=O)N[C@@H](CC(C)C)C(=O)N[C@@H](CC(C)C)C(=O)N[C@@H](CCCCN)C(=O)N[C@@H](CCC(=O)O)C(=O)N[C@@H](CC(C)C)C(=O)N[C@@H](CCC(N)=O)C(=O)N[C@@H](CC(=O)O)C(=O)O)[C@@H](C)CC [peptide 2a, reference compound] (H-CFETLRGEERILSILRHQNLLKELQD-OH; N-terminus and C-terminus assumed)
αvβ8; Table 3b, mean ± SE, read-out: Binding affinity for αvβ8 Ki
  Ki: > 50000 nM
αvβ6; Table 3b, mean ± SE, read-out: Binding affinity for αvβ6 Ki
  Ki: > 50000 nM
BxPC-3 cells
  inhibition of 5a-IRDye binding by excess of free peptide: not
5637 cells
  inhibition of 5a-IRDye binding by excess of free peptide: not

## CC[C@H](C)[C@H](NC(=O)[C@H](CCCNC(=N)N)NC(=O)[C@H](CC(C)C)NC(=O)[C@H](CC(=O)O)NC(=O)CNC(=O)[C@H](CCCNC(=N)N)NC(=O)[C@H](CC(C)C)NC(=O)[C@@H](NC(=O)[C@H](CCC(=O)O)NC(=O)[C@H](Cc1ccccc1)NC(C)=O)[C@@H](C)O)C(=O)N[C@@H](CC(C)C)C(=O)N[C@@H](CO)C(=O)N[C@H](C(=O)N[C@@H](CC(C)C)C(=O)N[C@@H](CCCNC(=N)N)C(=O)N[C@H]1Cc2cn(nn2)CCCC[C@@H](C(=O)N[C@@H](CCCCN)C(=O)N[C@@H](CCC(=O)O)C(=O)N[C@@H](CC(C)C)C(=O)N[C@@H](CCC(N)=O)C(=O)N[C@@H](CC(=O)O)C(N)=O)NC(=O)[C@H](CC(C)C)NC(=O)[C@H](CC(N)=O)NC(=O)[C@H](CCC(N)=O)NC1=O)[C@@H](C)CC [peptide 5, FETLRGDLRILSILRX1QNLX2KELQD] (Ac-FETLRGDLRILSILR[Pra]QNL[Lys(N3)]KELQD-NH2; triazole 16-20)
αvβ8; Table 3a and text, ± standard error of the mean, read-out: Ki αvβ8
  Ki: 3.2 ± 1.2 nM
[1]
  cytotoxicity in vitro: not cytotoxic
αvβ6; Table 3a and text, ± standard error of the mean, read-out: Ki αvβ6
  Ki: 0.6 ± 0.1 nM
[2]
  half-life at 454 μg/ml: 4.3 h

## CC[C@H](C)[C@H](NC(=O)[C@H](CCCNC(=N)N)NC(=O)[C@H](CC(C)C)NC(=O)[C@H](CC(=O)O)NC(=O)CNC(=O)[C@H](CCCNC(=N)N)NC(=O)[C@H](CC(C)C)NC(=O)[C@@H](NC(=O)[C@H](CCC(=O)O)NC(=O)[C@H](Cc1ccccc1)NC(=O)[C@@H](N)CS)[C@@H](C)O)C(=O)N[C@@H](CC(C)C)C(=O)N[C@@H](CO)C(=O)N[C@H](C(=O)N[C@@H](CC(C)C)C(=O)N[C@@H](CCCNC(=N)N)C(=O)N[C@H]1Cc2cn(nn2)CCCC[C@@H](C(=O)N[C@@H](CCCCN)C(=O)N[C@@H](CCC(=O)O)C(=O)N[C@@H](CC(C)C)C(=O)N[C@@H](CCC(N)=O)C(=O)N[C@@H](CC(=O)O)C(N)=O)NC(=O)[C@H](CC(C)C)NC(=O)[C@H](CC(N)=O)NC(=O)[C@H](CCC(N)=O)NC1=O)[C@@H](C)CC [peptide 5a, CFETLRGDLRILSILRX1QNLX2KELQD]
BxPC-3 cells
  inhibition of 5a-IRDye binding by excess of free peptide: significantly inhibited
5637 cells
  inhibition of 5a-IRDye binding by excess of free peptide: significantly inhibited
